Reference: article PMC6685155, “Simultaneous UPLC–TQ-MS/MS determination of six active components in rat plasma: application in the pharmacokinetic study of Cyclocarya paliurus leaves” (Chinese Medicine, 2019)

Experiment: Pharmacokinetic study in rats after oral administration of the CP extract (UPLC–TQ-MS/MS of plasma)
Format: in vivo
Conditions: male, Sprague-Dawley, rat plasma, single oral gavage of CP extract 10.5 g/kg, n=6, mean ± SD; for Cmax: non-compartmental
Method: Plasma samples were thawed at room temperature before analysis. Then, 10 μl of IS solution (20 μg/ml) and 200 μl of methanol were added to the plasma sample (90 μl) in a 1.5 ml Eppendorf tube. The mixture was vortexed for 1 min and centrifuged at 12,000×g for 10 min at 4 °C to deproteinize. Thereafter, 2 μl of the supernatant was injected into the UPLC–TQ/MS system for analysis.
Six healthy male Sprague–Dawley rats were fasted for 12 h with free access to water prior to the experiment. The CP extract was administered to rats by oral gavage at a dose of 10.5 g/kg body weight. Blood samples of approximately 0.5 ml were collected at 15 and 30 min and at 1 h, 2 h, 3 h, 4 h, 6 h, 8 h, 10 h, 12 h, and 24 h in heparinized centrifuge tubes from the ophthalmic vein using a sterile capillary tube under anesthesia after oral administration of the CP extract. Following centrifugation at 4000×g for 10 min at 4 °C, plasma samples were transferred to polypropylene tubes and stored at − 80 °C until analysis.
The concentrations of six analytes in plasma at different time points were expressed as mean ± SD, which was calculated from the daily calibration curve. All the pharmacokinetic parameters were processed through non-compartmental analysis using the DAS 3.0 pharmacokinetic program. The maximum plasma concentration (Cmax) and time to reach the maximum concentrations (Tmax) were obtained directly from the curve.

| AUC(0-inf) | AUC(0-t) | Tmax | half-life | Cmax | SMILES |
| --- | --- | --- | --- | --- | --- |
| 2470 ± 943 ng·h/mL | 2450 ± 952 ng·h/mL | 0.32 ± 0.12 h | 4.54 ± 1.38 h | 4330 ± 1610 ng/mL | O=C(/C=C/c1ccc(O)c(O)c1)O[C@@H]1C[C@@](O)(C(=O)O)C[C@@H](O)[C@@H]1O [Neochlorogenic acid, neochlorogenic acid] |
| 13500 ng·h/mL | 11000 ng·h/mL | 0.33 ± 0.13 h | 10 ± 3.31 h | 3710 ± 1590 ng/mL | O=C(O)[C@H]1O[C@@H](Oc2c(-c3ccc(O)c(O)c3)oc3cc(O)cc(O)c3c2=O)[C@H](O)[C@@H](O)[C@@H]1O [Quercetin-3-O-glucuronide, quercetin-3-O-glucuronide] |

The remaining lines, values behind:

| SMILES | AUC(0-inf) | AUC(0-t) | Tmax | half-life | Cmax |
| --- | --- | --- | --- | --- | --- |
| O=C(/C=C/c1ccc(O)c(O)c1)O[C@@H]1C[C@](O)(C(=O)O)C[C@@H](O)[C@H]1O [Chlorogenic acid, chlorogenic acid] | 3580 ± 1200 ng·h/mL | 3310 ± 1060 ng·h/mL | 0.39 ± 0.13 h | 2.54 ± 0.53 h | 4170 ± 1890 ng/mL |
| O=c1c(O)c(-c2ccc(O)c(O)c2)oc2cc(O)cc(O)c12 [Quercetin, quercetin] | 91.7 ± 15.2 ng·h/mL | 79.8 ± 28.5 ng·h/mL | 0.46 ± 0.1 h | 11.7 ± 6.01 h | 28.6 ± 8.23 ng/mL |
| O=c1c(O)c(-c2ccc(O)cc2)oc2cc(O)cc(O)c12 [Kaempferol, kaempferol] | 325 ± 104 ng·h/mL | 242 ± 77 ng·h/mL | 0.67 ± 0.26 h | 7.24 ± 1.63 h | 122 ± 49.9 ng/mL |
